Read-outs that look alike come from different tables or passages of the source.
Assays:
LATS1 kinase = LATS1 kinase (Homo sapiens (Human), UniProt O95835); experiment: LATS1 Biochemical HTRF Assay
Procedure: LATS1 Biochemical HTRF Assay
MgCl2 and [1 mM] DTT. 1× Enzymatic buffer diluted from 5× Enzymatic buffer*. Add 0.5 μL of 20× compound in 100% DMSO. […] MgCl2, [1 mM] DTIT and [5 mg/mL] BSA. 5×ERR prepared from 5× Enzymatic buffer with [25 mg/mL] BSA. Mix plate on plate shaker set at 1,350 rpm for 30 seconds, then centrifuge plate at 1,000 rpm for 1 minute. Incubate for 30 minutes at 25° C. on plate shaker set to 500 rpm. […] STK Substrate 1-biotin* then add 2 μL [10 mM] ATP. Mix plate on plate shaker set at 1,350 rpm for 30 seconds, then centrifuge plate at 1,000 rpm for 1 minute. Incubate for 40 minutes at 25° C. on plate shaker set to 500 rpm. […] Streptavidin-XL665 with 1×STK Antibody-Cryptate*. Mix plate on plate shaker set at 1,350 rpm for 30 seconds, then centrifuge plate at 1,000 rpm for 1 minute. Incubate for 60 minutes at 25° C. on plate shaker set to 500 rpm, covered from light.
*(Included in Cisbio KinEASE-STK Si HTRF Kit: 62ST1PEC)

phosphorylation of YAP = experiment: pYAP HTRF Assay (HEK 293A Cells); assay type: cell-based; conditions: HEK293-A, inhibitory activity of phosphorylation of YAP, read-out: LATS1_ICKA_HEK293A IC50
Procedure: Use 3× dilution scheme in DMSO through column 10, lastly diluting further by 10× into column 11. Add 100% DMSO in serum-free and complete medium in columns 1 and 12 as a positive and negative control, respectively. To achieve a dilution of 1:500, use two 0.8 ml 96-well deep-well plates (ThermoFisher AB0765) pre-filled with the medium as intermediate (1:20) and final dilution plate (1:25). (Transfer row-wise) • Flick the cell plate carefully, three to four times or until all wells are clear of any residual liquid. Dispense 50 μL of the compound in medium into respective wells row-wise, incubate at 37° C. for 30 min • After a 30-minute incubation, flick the cell plate carefully, three to four times or until all wells are clear of any residual liquid. Dilute stock Lysis Buffer #4 (4×) in deionized water, complemented with blocking solution, the stock of which is 100×*. Add 75 μL 1× lysis buffer+blocking reagent mix into each well. Mix plate on a shaker for 30 min at room temperature • Dilute stock solution of total/phospho-YAP Eu cryptate & d2 antibody (each) in the ratio of 1:20 with detection buffer. Mix antibody solutions Eu3+ cryptate and d2 (each for total-Yap and phospho-YAP) in the ratio of 1:1*. Transfer 4 μL of the antibody mixture into two separate small-volume 384-well plates assigned for total-YAP and phospho-YAP. Give a short spin to the plates in a benchtop centrifuge set at 1000 rpm for 30 seconds • Row-wise, homogenize the lysate gently by pipetting it up and down, swirling the tip in the well to help scrape off any adherent cells (avoid bubble formation). Row-wise transfer 16 μL cell lysate into the low-volume 384-well plates with 4 μL total-YAP or phospho-YAP antibody reaction mix for a final volume of 20 μL. Spin down the plates in a benchtop centrifuge set at 1000 rpm for 30 seconds • Seal the plates using a vacuum sealer, incubate overnight at room temperature in the dark on a shaker; read the next day • Use a fluorescence emission read using compatible HTRF® reader—BioTek Synergy NEO. […] Included in Cisbio HTRF YAP total kit (#64YATPEH) & YAP phospho-S127 kit (#64YAPPEH).

[1] = system: adult utricular supporting cells; experiment: EdU proliferation assay in cultured adult utricles; assay type: cell-based, mice; conditions: 5 days of treatment, control=20
Procedure: was tested in vitro to explore its mechanism of action and its utility in regenerating hair cells of the ear. The effects of the compounds were tested on utricles isolated from mice eight to twelve weeks of age. Internal ears were dissected from mice euthanized with fluothane and placed into ice-cold Hank's balanced salt solution, and cultured as previously described by Gnedeva, K. & Hudspeth [Proc. Natl. Acad Sci. 112, 14066-14071 (2015)]. For proliferation assays, utricles were cultured with 10 μM 5-ethynyl-2′-deoxyuridine (EdU) that was detected with click chemistry.
After 5 days of treatment, the N-benzyl thiazole evoked robust re-entry into the cell cycle of adult utricular supporting cells, yielding hundreds of EdU+daughter supporting cells (control=20 EdU+ supporting cells; the N-benzyl thiazole-treated=250 EdU+supporting cells; p=0.021 by an unpaired, one-tailed 1-test, control n=2, TO1 n=3).

Yap = Yap nuclear translocation in supporting cells of cultured utricles (immunohistochemical analysis); assay type: cell-based, mice; conditions: 10 μM, 24 hr of treatment, control=0.6
[2] = 2 mM ATP, read-out: LATS1_HTRF_2 mM ATP IC50

Chain of LATS1 kinase (O95835 589-1130): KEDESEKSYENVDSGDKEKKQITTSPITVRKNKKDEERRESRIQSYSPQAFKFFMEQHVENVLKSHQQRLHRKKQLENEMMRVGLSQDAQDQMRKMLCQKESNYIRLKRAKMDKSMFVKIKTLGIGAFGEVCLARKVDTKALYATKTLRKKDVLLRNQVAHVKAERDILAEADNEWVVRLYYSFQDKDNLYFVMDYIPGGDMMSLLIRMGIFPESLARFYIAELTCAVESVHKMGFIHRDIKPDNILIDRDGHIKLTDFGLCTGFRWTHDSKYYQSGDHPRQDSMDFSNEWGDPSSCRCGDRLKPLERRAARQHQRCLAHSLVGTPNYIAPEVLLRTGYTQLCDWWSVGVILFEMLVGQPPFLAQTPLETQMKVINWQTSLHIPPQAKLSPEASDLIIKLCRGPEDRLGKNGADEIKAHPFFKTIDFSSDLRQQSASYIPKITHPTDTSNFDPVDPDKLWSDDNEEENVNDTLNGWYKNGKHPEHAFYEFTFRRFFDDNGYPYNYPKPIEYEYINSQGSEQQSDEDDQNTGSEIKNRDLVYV

Row | Structure (SMILES) | IC50 (LATS1 kinase; [2]) | IC50 (phosphorylation of YAP) | EdU+ supporting cells (re-entry into the cell cycle) [1] | Yap nuclear translocation, quantified as a ratio to the constitutively expressed protein Sall2 (Yap) | IC50 (LATS1 kinase)
1 | O=C(/N=C1\SCCCN1C1CCCCC1)c1c[nH]c2ncccc12 [Example 30] | 2.9 nM | 39 nM |  |  | 
2 | O=C(/N=C1\SCCN1c1ccccc1)c1c[nH]c2ncccc12 [Example 2] | 0.829 nM | 23 nM |  |  | 
3 | O=C(/N=C1\SCCN1Cc1ccccc1)c1c[nH]c2ncccc12 [Example 1, (Z)—N-(3-benzylthiazolidin-2-ylidene)-1H-pyrrolo[2,3-b]pyridine-3-carboxamide] | 11.2 nM | 19.7 nM |  |  | 
4 | O=C(/N=C1\SCCN1c1cccc(O)c1)c1c[nH]c2ncccc12 [Example 10] | 1.6 nM | 39.2 nM |  |  | 
5 | O=C(/N=C1\SCCCN1c1ccccc1Cl)c1ccnc2[nH]ccc12 [Example 27] | 200 nM | 5560 nM |  |  | 
6 | O=C(/N=C1\SCCCN1Cc1ccccc1)c1c[nH]c2ncccc12 [Example 25] | 2.5 nM | 77 nM |  |  | 
7 | O=C(/N=c1\sccn1Cc1ccccc1)c1c[nH]c2ncccc12 |  |  | 250 | 1.0 | 
8 | CN(C)Cc1cs/c(=N\C(=O)c2c[nH]c3ncccc23)n1Cc1ccccc1 [Example 65, (Z)—N-(3-benzyl-4-((dimethylamino)methyl)thiazol-2(3H)-ylidene)-1H-pyrrolo[2,3-b]pyridine-3-carboxamide] | 15 nM | 640 nM |  |  | 
9 | O=C(/N=C1\SCC(CO)CN1c1ccccc1)c1c[nH]c2ncccc12 (centres unmarked) [Example 35, (Z)—N-(5-(hydroxymethyl)-3-phenyl-1,3-thiazinan-2-ylidene)-1H-pyrrolo[2,3-b]pyridine-3-carboxamide] | 3.9 nM | 392 nM |  |  | 
10 | COCCN(C)Cc1cs/c(=N\C(=O)c2c[nH]c3ncccc23)n1-c1ccccc1Cl [Example 68] | 2.8 nM | 270 nM |  |  | 
11 | CC(O)CN1CCS/C1=N\C(=O)c1c[nH]c2ncccc12 (centres unmarked) [Example 19, (Z)—N-(3-(2-hydroxypropyl)thiazolidin-2-ylidene)-1H-pyrrolo[2,3-b]pyridine-3-carboxamide] | 210 nM | 1720 nM |  |  | 
12 | O=C(/N=C1\SCCN1c1ccccc1Cl)c1ccnc2[nH]ccc12 [Example 17] | 82 nM | 1480 nM |  |  | 
13 | O=C(/N=C1\SCCCN1c1ccccc1Cl)c1c[nH]c2ncccc12 [Example 28] | 1.6 nM | 109 nM |  |  | 
14 | O=C(/N=C1\SCC(CO)N1c1ccccc1)c1c[nH]c2ncccc12 (centres unmarked) [Example 13, (Z)—N-(4-(hydroxymethyl)-3-phenylthiazolidin-2-ylidene)-1H-pyrrolo[2,3-b]pyridine-3-carboxamide] | 0.44 nM | 45 nM |  |  | 
15 | O=C(/N=C1\SCCCN1c1ccccc1)c1c[nH]c2ncccc12 [Example 26] |  | 69 nM |  |  | 
16 | CN(C)CC1CS/C(=N\C(=O)c2c[nH]c3ncccc23)N1c1ccccc1 (centres unmarked) [Example 14, (Z)—N-(4-((dimethylamino)methyl)-3-phenylthiazolidin-2-ylidene)-1H-pyrrolo[2,3-b]pyridine-3-carboxamide] | 4.1 nM | 71 nM |  |  | 
17 | CC1(C)CS/C(=N\C(=O)c2c[nH]c3ncccc23)N1C1CCCCC1 [Example 12] |  | 37 nM |  |  | 1.1 nM

Row | Structure (SMILES) | IC50 (LATS1 kinase; [2]) | IC50 (phosphorylation of YAP) | EdU+ supporting cells (re-entry into the cell cycle) [1] | Yap nuclear translocation, quantified as a ratio to the constitutively expressed protein Sall2 (Yap) | IC50 (LATS1 kinase)
18 | COc1cccc(N2CCS/C2=N\C(=O)c2c[nH]c3ncccc23)c1 [Example 9] |  | 1740 nM |  |  | 
19 | O=C(/N=c1\sccn1-c1ccccc1Cl)n1ccc2ncccc21 [Example 85] |  | 31600 nM |  |  | 
20 | COc1ccc(N2CCS/C2=N\C(=O)c2c[nH]c3ncccc23)cc1 [Example 7] |  | 1850 nM |  |  | 
21 | CCc1ccccc1N1CCS/C1=N\C(=O)c1c[nH]c2ncccc12 [Example 4] | 4.2 nM | 205 nM |  |  | 
22 | O=C(/N=c1\scc(CN2CCOCC2)n1-c1ccccc1Cl)c1c[nH]c2ncccc12 [Example 67] | 1.1 nM | 147 nM |  |  | 
23 | COc1ccccc1N1CCS/C1=N\C(=O)c1c[nH]c2ncccc12 [Example 5] |  | 1700 nM |  |  | 
24 | O=C(/N=C1\SCCN1c1ccccc1Cl)c1c[nH]c2ncccc12 [Example 3] | 0.297 nM | 5.15 nM |  |  | 
25 | CN(C)Cc1cs/c(=N\C(=O)c2c[nH]c3ncccc23)n1C1CCCCC1 [Example 69] | 1.8 nM | 68 nM |  |  | 
26 | CNC(=O)C1CS/C(=N\C(=O)c2c[nH]c3ncccc23)N(c2ccccc2)C1 (centres unmarked) [Example 34, (Z)-2-((1H-pyrrolo[2,3-b]pyridine-3-carbonyl)imino)-N-methyl-3-phenyl-1,3-thiazinane-5-carboxamide] | 23 nM | 1710 nM |  |  | 
27 | O=C(/N=C1\SCCN1c1ccccc1O)c1c[nH]c2ncccc12 [Example 6] | 0.59 nM | 1.3 nM |  |  | 
28 | O=C(/N=C1\SCCN1C1CCCCC1)c1c[nH]c2ncccc12 [Example 11] | 1.1 nM | 53 nM |  |  | 
29 | CNC(=O)c1cs/c(=N\C(=O)c2ccnc3[nH]ccc23)n1-c1ccccc1Cl [Example 58] | 48 nM | 527 nM |  |  | 
30 | O=C(/N=C1\SCCN1c1ccccc1)n1ccc2ncccc21 [Example 84] |  | 2290 nM |  |  | 
31 | CN(C)Cc1cs/c(=N\C(=O)c2c[nH]c3ncccc23)n1-c1ccccc1Cl [Example 66, (Z)—N-(3-(2-chlorophenyl)-4-((dimethylamino)methyl)thiazol-2(3H)-ylidene)-1H-pyrrolo[2,3-b]pyridine-3-carboxamide] | 1.3 nM | 327 nM |  |  | 
32 | O=C(/N=c1\sccn1-c1ccccc1Cl)c1ccnc2[nH]ccc12 [Example 41] |  | 4.75 nM |  |  | 
33 | O=C(/N=C1\SCCN1c1ccc(O)cc1)c1c[nH]c2ncccc12 [Example 8] | 13 nM | 687 nM |  |  | 
